Measurements: patent US11866433B2, “Diarylthiohydantoin compound as androgen receptor antagonist” (CHIA TAI TIANQING PHARMACEUTICAL GROUP CO., LTD., priority 2017, dated 2024)

Target: T1, androgen receptor (AR) (Homo sapiens, UniProt P10275)
T1 sequence (P10275 1-920): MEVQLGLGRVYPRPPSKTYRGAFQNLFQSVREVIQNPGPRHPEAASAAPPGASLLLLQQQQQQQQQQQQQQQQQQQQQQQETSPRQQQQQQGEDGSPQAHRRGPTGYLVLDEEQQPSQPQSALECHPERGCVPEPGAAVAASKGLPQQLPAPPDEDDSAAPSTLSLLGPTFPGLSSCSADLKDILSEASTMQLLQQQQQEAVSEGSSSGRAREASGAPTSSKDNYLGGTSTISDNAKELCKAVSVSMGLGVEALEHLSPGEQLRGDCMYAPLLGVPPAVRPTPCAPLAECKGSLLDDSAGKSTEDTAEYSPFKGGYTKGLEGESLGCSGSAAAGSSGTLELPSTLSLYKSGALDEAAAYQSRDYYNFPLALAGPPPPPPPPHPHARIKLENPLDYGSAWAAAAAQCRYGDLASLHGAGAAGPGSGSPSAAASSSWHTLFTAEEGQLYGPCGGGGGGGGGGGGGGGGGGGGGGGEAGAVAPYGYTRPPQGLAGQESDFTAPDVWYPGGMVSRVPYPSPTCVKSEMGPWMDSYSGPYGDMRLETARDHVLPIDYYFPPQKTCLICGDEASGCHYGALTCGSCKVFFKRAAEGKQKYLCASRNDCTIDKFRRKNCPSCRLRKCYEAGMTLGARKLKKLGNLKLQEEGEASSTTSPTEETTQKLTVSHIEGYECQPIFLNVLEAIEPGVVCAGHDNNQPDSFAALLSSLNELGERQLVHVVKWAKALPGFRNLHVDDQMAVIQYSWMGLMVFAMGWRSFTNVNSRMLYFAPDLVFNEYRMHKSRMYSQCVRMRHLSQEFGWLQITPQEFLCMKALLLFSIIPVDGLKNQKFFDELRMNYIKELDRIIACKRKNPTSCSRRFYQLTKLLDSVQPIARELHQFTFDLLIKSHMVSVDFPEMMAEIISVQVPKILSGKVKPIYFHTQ
Assay: Antagonism of compounds on nuclear translocation of androgen receptor (PathHunter NHR cell lines)
Type: cell-based
Settings: antagonist mode, agonist 6a-Fluorotestosterone 0.06 μM (EC80)
Description: Example 75 Test of Antagonism of Compounds on Nuclear Translocation of Androgen Receptor (AR)
1. PathHunter NHR cell lines were recovered and cultured for amplification.
2. The cells were inoculated onto a 384-well plate prior to testing, and incubated at 37° C. The serum for culture was filtered with charcoal-dextran to reduce the hormone level therein.
3. In the detection of the antagonistic function, a compound was added to the cells and incubated for 60 min. The working concentration of the test compound was diluted from 10 μM at a 3-fold concentration gradient, respectively including: […]. Then, an agonist 6a-Fluorotestosterone 0.06 μM (concentration: EC80, i.e., 80% agonistic compound concentration) was added, and the mixture was incubated at 37° C. or at room temperature for 3-16 h.
4. Signal detection: 12.5 μL or 15 μL (50%, v/v) PathHunter detection mixed solution (kit: DiscoverX product catalog number: 93-0001 series) was added, and incubated at room temperature for 1 h. The chemiluminescent signal was read with a PerkinElmer Envision™ instrument.
5. Data analysis: The compound activity was analyzed with CBIS data analysis software (ChemInnovation, CA). The calculation formula of the inhibition percent of the antagonist is as follows: IC50 inhibition ratio (%)=[…]×(1−(average RLU value of the test compound−average RLU value of the blank control group)/(average RLU value of EC80 control group−average RLU value of the blank control group)).

| SMILES | IC50 [nM] |
| --- | --- |
| CCc1cc(=O)n2cc(N3C(=S)N(c4ccc(C#N)c(C(F)(F)F)c4)C(=O)C3(C)C)ccc2n1 [Compound 30] | 2540 |
| CCc1nc2ccc(N3C(=S)N(c4ccc(C#N)c(C(F)(F)F)c4)C(=O)C3(C)C)cn2c(=O)c1OC [Compound 31] | 3800 |
| CCc1nc(OCC(N)=O)c2cc(N3C(=S)N(c4ccc(C#N)c(C(F)(F)F)c4)C(=O)C3(C)C)cc(F)c2n1 [Compound 32] | 6760 |
| CCc1nc2ccc(N3C(=S)N(c4ccc(C#N)c(C(F)(F)F)c4)C(=O)C3(C)C)cn2c(=O)c1O [Compound 33] | 9580 |
| CCc1nc2c(F)cc(N3C(=S)N(c4ccc(C#N)c(C(F)(F)F)c4)C(=O)C3(C)C)cn2c(=O)c1OC [Compound 34] | 3230 |
| CCc1nc(OCC2(O)CC2)c2cc(N3C(=S)N(c4ccc(C#N)c(C(F)(F)F)c4)C(=O)C3(C)C)cc(F)c2n1 [Compound 36] | 5650 |
| CCc1nc2ccc(N3C(=S)N(c4ccc(C#N)c(C(F)(F)F)c4)C(=O)C3(C)C)cn2c(=O)c1OCCOC [Compound 37] | 4470 |
| CCc1nc2ccc(N3C(=S)N(c4ccc(C#N)c(C(F)(F)F)c4)C(=O)C3(C)C)cn2c(=O)c1OCCO [Compound 38] | 3580 |
| CCc1nc2c(F)cc(N3C(=S)N(c4ccc(C#N)c(C(F)(F)F)c4)C(=O)C3(C)C)cn2c(=O)c1O [Compound 39] | 5950 |
| CCc1nc2c(F)cc(N3C(=S)N(c4ccc(C#N)c(C(F)(F)F)c4)C(=O)C3(C)C)cn2c(=O)c1OCCOC [Compound 40] | 2150 |
| CCc1nc2c(F)cc(N3C(=S)N(c4ccc(C#N)c(C(F)(F)F)c4)C(=O)C3(C)C)cn2c(=O)c1OCCO [Compound 41] | 2750 |
| CCc1nc2c(F)cc(N3C(=S)N(c4ccc(C#N)c(C(F)(F)F)c4)C(=O)C3(C)C)cn2c(=O)c1OCC(=O)NC [Compound 42] | 2200 |
| CCc1nc2c(F)cc(N3C(=S)N(c4ccc(C#N)c(C(F)(F)F)c4)C(=O)C3(C)C)cn2c(=O)c1OCC(N)=O [Compound 43] | 3500 |
| CCc1nc(OC2COC[C@H]2O)c2cc(N3C(=S)N(c4ccc(C#N)c(C(F)(F)F)c4)C(=O)C3(C)C)cc(F)c2n1 (some centres unmarked) [Compound 44] | 3760 |
| CCc1nc2c(F)cc(-n3c(=S)n(-c4ccc(C#N)c(C(F)(F)F)c4)c4nccc(C)c43)cc2c(=O)[nH]1 [Compound 45] | 2640 |
| CCc1nc(OC2COC[C@@H]2O)c2cc(N3C(=S)N(c4ccc(C#N)c(C(F)(F)F)c4)C(=O)C3(C)C)cc(F)c2n1 (some centres unmarked) [Compound 46] | 3080 |
| CCc1nc2c(F)cc(N3C(=S)N(c4ccc(C#N)c(C(F)(F)F)c4)C(=O)C3(C)C)cn2c(=O)c1F [Compound 47] | 2570 |
| CCc1nc(OCCO)c2cc(N3C(=S)N(c4ccc(C#N)c(C(F)F)c4)C(=O)C3(C)C)ccc2n1 [Compound 48] | 3670 |
| CC(F)(F)c1nc(OCCO)c2cc(N3C(=S)N(c4ccc(C#N)c(C(F)(F)F)c4)C(=O)C3(C)C)cc(F)c2n1 [Compound 49] | 1430 |
| CCc1nc(OCCO)c2cc(N3C(=S)N(c4ccc(C#N)c(C(F)F)c4)C(=O)C3(C)C)cc(F)c2n1 [Compound 50] | 3450 |
| CCc1nc(-c2cn[nH]c2)c2cc(N3C(=S)N(c4ccc(C#N)c(C(F)(F)F)c4)C(=O)C3(C)C)cc(F)c2n1 [Compound 51] | 640 |
| CCc1nc(-c2cc[nH]n2)c2cc(N3C(=S)N(c4ccc(C#N)c(C(F)(F)F)c4)C(=O)C3(C)C)cc(F)c2n1 [Compound 52] | 1230 |

| SMILES | IC50 [nM] |
| --- | --- |
| CCc1cc(=O)n2cc(N3C(=S)N(c4cnc(C#N)c(C(F)(F)F)c4)C(=O)C3(C)C)cc(F)c2n1 [Compound 53] | 2110 |
| CCc1cc(=O)n2cc(N3C(=S)N(c4ccc(C#N)c(C(F)(F)F)c4)C(=O)C34CCC4)cc(F)c2n1 [Compound 54] | 2500 |
| CCOc1cc(=O)n2cc(N3C(=S)N(c4ccc(C#N)c(C(F)(F)F)c4)C(=O)C3(C)C)cc(F)c2n1 [Compound 55] | 1400 |
| CCc1nc2ccc(-n3c(=S)n(-c4ccc(C#N)c(C(F)(F)F)c4)c4nccc(C)c43)cc2c(=O)[nH]1 [Compound 56] | 2860 |
| CCc1cc(=O)n2cc(N3C(=S)N(c4ccc(C#N)c(C(F)(F)F)c4)C(=O)C3(C)C)cc(OC)c2n1 [Compound 57] | 5470 |
| CCc1cc(=O)n2cc(N3C(=S)N(c4ccc(C#N)c(F)c4)C(=O)C3(C)C)cc(F)c2n1 [Compound 59] | 8920 |
| CCc1cc(=O)n2cc(N3C(=S)N(c4ccc(C#N)c(C(F)(F)F)c4)C(=O)C3(C)C)cc(C)c2n1 [Compound 60] | 1830 |
| CCc1cc(=O)n2cc(N3C(=S)N(c4ccc(C#N)c(C(F)(F)F)c4)C(=O)C3(C)C)cc(Cl)c2n1 [Compound 61] | 1450 |
| CC1(C)C(=O)N(c2ccc(C#N)c(C(F)(F)F)c2)C(=S)N1c1cc(F)c2nc(C(F)F)cc(=O)n2c1 [Compound 62] | 1690 |
| CCc1nc(-c2c[nH]cn2)c2cc(N3C(=S)N(c4ccc(C#N)c(C(F)(F)F)c4)C(=O)C3(C)C)cc(F)c2n1 [Compound 63] | 1340 |
| CCOc1cc(=O)n2cc(N3C(=S)N(c4cnc(C#N)c(C(F)(F)F)c4)C(=O)C3(C)C)cc(F)c2n1 [Compound 64] | 2810 |
| COCCOc1cc(=O)n2cc(N3C(=S)N(c4ccc(C#N)c(C(F)(F)F)c4)C(=O)C3(C)C)cc(F)c2n1 [Compound 65] | 2090 |
| CCc1cc(=O)n2cc(-n3c(=S)n(-c4ccc(C#N)c(C(F)(F)F)c4)c4nccc(C)c43)cc(F)c2n1 [Compound 66] | 7120 |
| CC1(C)C(=O)N(c2ccc(C#N)c(C(F)(F)F)c2)C(=S)N1c1cc(F)c2nc(OCCO)cc(=O)n2c1 [Compound 67] | 2300 |
| COc1cc(=O)n2cc(N3C(=S)N(c4ccc(C#N)c(C(F)(F)F)c4)C(=O)C3(C)C)cc(F)c2n1 [Compound 68] | 1910 |
| COCc1cc(=O)n2cc(N3C(=S)N(c4ccc(C#N)c(C(F)(F)F)c4)C(=O)C3(C)C)cc(F)c2n1 [Compound 69] | 4000 |
| CCOc1nc(OCCO)c2cc(N3C(=S)N(c4ccc(C#N)c(C(F)(F)F)c4)C(=O)C3(C)C)cc(F)c2n1 [Compound 70] | 4270 |
| COc1nc(OCCO)c2cc(N3C(=S)N(c4ccc(C#N)c(C(F)(F)F)c4)C(=O)C3(C)C)cc(F)c2n1 [Compound 71] | 2760 |
| CCOc1nc(OCCO)c2cc(N3C(=S)N(c4cnc(C#N)c(C(F)(F)F)c4)C(=O)C3(C)C)cc(F)c2n1 [Compound 72] | 2410 |
| COc1nc(OCCO)c2cc(N3C(=S)N(c4cnc(C#N)c(C(F)(F)F)c4)C(=O)C3(C)C)cc(F)c2n1 [Compound 73] | 2130 |
| CC1(C)C(=O)N(c2cnc(C#N)c(C(F)(F)F)c2)C(=S)N1c1cc(F)c2nc(C(F)F)cc(=O)n2c1 [Compound 74] | 2960 |
| CCc1cc(=O)n2cc(N3C(=S)N(c4cnc(C#N)c(Cl)c4)C(=O)C3(C)C)cc(F)c2n1 [Compound 75] | 920 |
